SMILES strings stand for the structures. pIC50: −log10 of the molar value.

A word on the pIC50: it is −log10 of the IC50, conventionally taken in molar units. A high value points to a low IC50.

The target in one test is T1, V600E full-length B-Raf (Homo sapiens, UniProt P15056, V600E).
T1 construct: made in house; host or cells: Sf9 insect cells (baculovirus)
Briefly: B-Raf IC50 assay (incorporation of radiolabeled phosphate from [γ-33P]ATP into FSBA-modified wild-type MEK). Type of test: biochemical. An excerpt: Determining the activity of Raf in the sample is possible by a number of direct and indirect detection methods (US 2004/0082014). Activity of human recombinant B-Raf protein may be assessed in vitro by assay of the incorporation of radio labeled phosphate to recombinant MAP kinase (MEK), a known physiologic substrate of B-Raf, according to US 2004/0127496 and WO 03/022840.
Activity of human recombinant B-Raf protein may be assessed in vitro by assay of the incorporation of radio labeled phosphate to recombinant MAP kinase (MEK), a known physiologic substrate of B-Raf, according to US 2004/0127496 and WO 03/022840. Catalytically active human recombinant B-Raf protein is obtained by purification from sf9 insect cells infected with a human B-Raf recombinant baculovirus expression vector.
Incubations were carried out at 22° C. in a Costar 3365 plate (Corning). Prior to the assay, the B-Raf and FSBA-MEK were preincubated together in assay buffer at 1.5× (20 μL of 30 nM and 1.5 μM, respectively) for 15 minutes, and the assay was initiated by the addition of 10 μL of 10 μM ATP. Following the 60-minute incubation, the assay mixtures were quenched by the addition of 100 μL of 25% TCA, the plate was mixed on a rotary shaker for 1 minute, and the product was captured on a Perkin-Elmer GF/B filter plate using a Tomtec Mach III Harvester. After sealing the bottom of the plate, […] of Bio-Safe II (Research Products International) scintillation cocktail were added to each well and the plate was top-sealed and counted in a Topcount NXT (Packard).

Test [1] deals with basal ERK1/2 phosphorylation in Malme-3M cells. Briefly: Cellular ERK 1/2 phosphorylation assay. As to conditions: Homo sapiens, 1 hour incubation, pERK normalized to total ERK, representative data of multiple tests. The format is cell-based. The procedure: Inhibition of basal ERK1/2 phosphorylation was determined by the following in vitro […], which comprises incubating cells with a compound of Formula I for 1 hour and quantifying the fluorescent pERK signal on fixed cells and normalizing to total ERK signal.
Materials and Methods: Malme-3M cells were obtained from ATCC and grown in RPMI-1640 supplemented with 10% fetal bovine serum. Cells were plated in 96-well plates at 24,000 cells/well and allowed to attach for 16-20 hours at 37° C., 5% CO2. The media was removed, and DMSO-diluted compounds were added in RPMI-1640 at a final concentration of 1% DMSO. The cells were incubated with the compounds for 1 hour at 37° C., 5% CO2. The cells were washed with PBS and fixed in 3.7% formaldehyde in PBS for 15 minutes. This was followed by washing in PBS/0.05% Tween20 and permeabilizing in −20° C. 100% MeOH for 15 minutes. Cells were washed in PBS/0.05% Tween20 then blocked in Odyssey blocking buffer (LI-COR Biosciences) for 1 hour. Antibodies to phosphorylated ERK (1:400, Cell Signaling #9106, monoclonal) and total ERK (1:400, Santa Cruz Biotechnology #sc-94, polyclonal) were added to the cells and incubated 16-20 hours at 4° C. After washing with PBS/0.05% Tween20, the cells were incubated with fluorescently-labeled secondary antibodies (1:1000 goat anti-rabbit IgG-IRDye800, Rockland and 1:500 goat anti-mouse IgG-Alexa Fluor 680, Molecular Probes) for an additional hour. Cells were then washed and analyzed for fluorescence at both wavelengths using the Odyssey Infrared Imaging System (LI-COR Biosciences). Phosphorylated ERK signal was normalized to total ERK signal.

The mark [2] stands for this setting: 4 μM ATP, 60-minute incubation, representative data of multiple tests.

T1 sequence (P15056 whole entry V600E): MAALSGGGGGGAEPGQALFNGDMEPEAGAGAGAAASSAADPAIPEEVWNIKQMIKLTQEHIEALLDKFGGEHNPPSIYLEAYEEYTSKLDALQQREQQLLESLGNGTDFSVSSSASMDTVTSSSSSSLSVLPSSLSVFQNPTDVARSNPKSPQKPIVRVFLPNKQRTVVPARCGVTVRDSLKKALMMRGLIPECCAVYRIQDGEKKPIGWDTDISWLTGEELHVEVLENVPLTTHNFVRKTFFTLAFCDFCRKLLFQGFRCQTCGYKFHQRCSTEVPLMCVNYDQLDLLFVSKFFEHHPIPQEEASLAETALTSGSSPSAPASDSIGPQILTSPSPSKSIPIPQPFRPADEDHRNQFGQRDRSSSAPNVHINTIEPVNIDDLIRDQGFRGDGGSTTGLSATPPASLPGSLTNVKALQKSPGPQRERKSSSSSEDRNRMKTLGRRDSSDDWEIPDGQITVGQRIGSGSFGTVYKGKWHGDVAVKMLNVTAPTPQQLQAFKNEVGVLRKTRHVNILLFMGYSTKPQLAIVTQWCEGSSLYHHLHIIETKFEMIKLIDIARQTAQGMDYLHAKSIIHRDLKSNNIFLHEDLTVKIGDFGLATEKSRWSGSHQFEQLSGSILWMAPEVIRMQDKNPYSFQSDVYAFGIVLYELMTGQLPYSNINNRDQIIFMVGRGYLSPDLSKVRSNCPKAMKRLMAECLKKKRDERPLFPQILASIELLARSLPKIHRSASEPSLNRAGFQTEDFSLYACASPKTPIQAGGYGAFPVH

As to `COc1cc2ncc(NC(=O)c3c(Cl)ccc(NS(=O)(=O)CCCF)c3F)cn2n1` [Example 22, 6-chloro-2-fluoro-3-(3-fluoropropyl-sulfonamido)-N-(2-methoxypyrazolo [1,5-a]pyrimidin-6-yl)benzamide], the negative-log IC50 (pIC50) against V600E full-length B-Raf (setting [2]) is 8.11; against V600E full-length B-Raf (bound stated), over 6.82; in test [1], 7.37.

On to `CCCS(=O)(=O)Nc1ccc(F)c(C(=O)Nc2cnc3cc(-c4cccnc4)nn3c2)c1F` [Example 10, 2,6-difluoro-3-(propylsulfonamido)-N-(2-(pyridin-3-yl)pyrazolo[1,5-a]pyrimidin-6-yl)benzamide], for which the values for the negative logarithm of the IC50 (pIC50) (on V600E full-length B-Raf (setting [2]); against V600E full-length B-Raf (bound stated); in test [1]) were 7.83, over 6.82 and 7.57, respectively.

Turning to `CCCS(=O)(=O)Nc1ccc(F)c(C(=O)Nc2cnc3cc(-c4cccc(N5CCN(C)CC5)c4)nn3c2)c1F` [Example 11, 2,6-difluoro-N-(2-(3-(4-methylpiperazin-1-yl)phenyl)pyrazolo[1,5-a]pyrimidin-6-yl)-3-(propylsulfonamido)benzamide], the pIC50 was 8.39 against V600E full-length B-Raf (setting [2]), over 6.82 on V600E full-length B-Raf (bound stated) and 8.02 in test [1].

For `CCCS(=O)(=O)Nc1ccc(F)c(C(=O)Nc2cnc3cc(-c4ccccc4)nn3c2)c1F` [Example 5, 2,6-difluoro-N-(2-phenylpyrazolo[1,5-a]pyrimidin-6-yl)-3-(propylsulfonamido)benzamide], the pIC50 in test [1] is 7.86.

As for `COc1cc2ncc(NC(=O)c3c(F)ccc(NS(=O)(=O)N4CCCC4)c3F)cn2n1` [Example 24, 2,6-difluoro-N-(2-methoxypyrazolo [1,5-a]pyrimidin-6-yl)-3-(pyrrolidine-1-sulfonamido) benzamide], the negative-log IC50 (pIC50) against V600E full-length B-Raf (setting [2]) is 6.59; on V600E full-length B-Raf (bound stated), over 6.52; in test [1] it was 6.42.

As to `CCCS(=O)(=O)Nc1ccc(F)c(C(=O)Nc2cnc3cc(OCCOC)nn3c2)c1Cl` [Example 34, 2-chloro-6-fluoro-N-(2-(2-methoxyethoxy)pyrazolo[1,5-a]pyrimidin-6-yl)-3-(propylsulfonamido) benzamide], the figures for the pIC50 (on V600E full-length B-Raf (setting [2]); against V600E full-length B-Raf (bound stated); in test [1]) were 7.34, over 6.82 and 6.90, respectively.

As for `CCCS(=O)(=O)Nc1ccc(F)c(C(=O)Nc2cnc3cc(N4CCCC4)nn3c2)c1F` [Example 17, 2,6-difluoro-3-(propylsulfonamido)-N-(2-(pyrrolidin-1-yl)pyrazolo[1,5-a]pyrimidin-6-yl)benzamide], the pIC50 against V600E full-length B-Raf (setting [2]) was 6.44; in test [1], 6.18.

Regarding `CCCS(=O)(=O)Nc1ccc(F)c(C(=O)Nc2cnc3cc(OC)nn3c2)c1F` [Example 1, 2,6-difluoro-N-(2-methoxypyrazolo[1,5-a]pyrimidin-6-yl)-3-(propylsulfonamido)benzamide], the results for the pIC50 (against V600E full-length B-Raf (setting [2]); against V600E full-length B-Raf (bound stated); in test [1]) were 7.27, over 6.82 and 7.16, respectively.

(Values after patent US20120157451A1, “RAF INHIBITOR COMPOUNDS AND METHODS OF USE THEREOF” (GENENTECH, INC, priority 2009, published 2012).)
